Measurements: PubChem BioAssay (NCI)
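96-well plates; 48 h exposure; 5 concentrations. Endpoints by linear interpolation between flanking doses. Not reached: highest tested concentration assigned. TGI: total growth inhibition.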

Experiments:
Assay in all cases: NCI anticancer screen, dose series, 48 h
[1] = tested on: MOLT-4 leukemia
[2] = tested on: LOX IMVI melanoma
[3] = tested on: HT29 colon
[4] = tested on: CAKI-1 renal
[5] = tested on: NCI/ADR-RES ovarian
[6] = tested on: SN12C renal
[7] = tested on: SK-MEL-5 melanoma
[8] = tested on: OVCAR-8 ovarian
[9] = tested on: U251 CNS
[10] = tested on: BT-549 breast
[11] = tested on: HS 578T breast
[12] = tested on: T-47D breast
[13] = tested on: NCI-H23 lung
[14] = tested on: MDA-MB-435
[15] = tested on: HCT-116 colon
[16] = tested on: SK-MEL-2 melanoma
[17] = tested on: SNB-19 CNS
[18] = tested on: M14 melanoma
[19] = tested on: TK-10 renal
[20] = tested on: A498 renal
[21] = tested on: A549 NSCLC
[22] = tested on: IGROV1 ovarian
[23] = tested on: OVCAR-4 ovarian
[24] = tested on: NCI-H460 lung
[25] = tested on: NCI-H522 lung
[26] = tested on: SF-539 CNS
[27] = tested on: KM12 colon
[28] = tested on: OVCAR-5 ovarian
[29] = tested on: 786-0 renal
[30] = tested on: SW-620 colon
[31] = tested on: HOP-92 NSCLC
[32] = tested on: MDA-N
[33] = tested on: MCF7 breast
[34] = tested on: HL-60(TB) leukemia
[35] = tested on: CCRF-CEM leukemia
[36] = tested on: SK-MEL-28 melanoma
[37] = tested on: UACC-257 melanoma
[38] = tested on: HCT-15 colon
[39] = tested on: MDA-MB-231 breast
[40] = tested on: DU-145 prostate
[41] = tested on: EKVX NSCLC
[42] = tested on: UACC-62 melanoma
[43] = tested on: COLO 205 colon
[44] = tested on: ACHN renal
[45] = tested on: RPMI-8226 leukemia
[46] = tested on: SF-268 CNS
[47] = tested on: MALME-3M melanoma
[48] = tested on: PC-3 prostate
[49] = tested on: SK-OV-3 ovarian
[50] = tested on: SR leukemia
[51] = tested on: HOP-62 NSCLC
[52] = tested on: NCI-H226 lung
[53] = tested on: UO-31 renal
[54] = tested on: SF-295 CNS
[55] = tested on: K-562 leukemia
[56] = tested on: OVCAR-3 ovarian
[57] = tested on: SNB-75 CNS
[58] = tested on: HCC-2998 colon
[59] = tested on: RXF 393 renal

SMILES: CCOP(=O)(OCC)C(N)c1ccc(Cl)cc1 (stereo not drawn)
- TGI [1]: > 100 µM
- TGI [2]: > 100 µM
- TGI [3]: > 100 µM
- TGI [4]: > 100 µM
- TGI [5]: > 100 µM
- TGI [6]: > 100 µM
- TGI [7]: > 100 µM
- TGI [8]: > 100 µM
- TGI [9]: > 100 µM
- TGI [10]: > 100 µM
- TGI [11]: > 100 µM
- TGI [12]: > 100 µM
- TGI [13]: > 100 µM
- TGI [14]: > 100 µM
- TGI [15]: > 100 µM
- TGI [16]: > 100 µM
- TGI [17]: > 100 µM
- TGI [18]: > 100 µM
- TGI [19]: > 100 µM
- TGI [20]: > 100 µM
- TGI [21]: > 100 µM
- TGI [22]: > 100 µM
- TGI [23]: > 100 µM
- TGI [24]: > 100 µM
- TGI [25]: > 100 µM
- TGI [26]: > 100 µM
- TGI [27]: > 100 µM
- TGI [28]: > 100 µM
- TGI [29]: > 100 µM
- TGI [30]: > 100 µM
- TGI [31]: > 100 µM
- TGI [32]: > 100 µM
- TGI [33]: > 100 µM
- TGI [34]: > 100 µM
- TGI [35]: > 100 µM
- TGI [36]: > 100 µM
- TGI [37]: > 100 µM
- TGI [38]: > 100 µM
- TGI [39]: > 100 µM
- TGI [40]: > 100 µM
- TGI [41]: > 100 µM
- TGI [42]: > 100 µM
- TGI [43]: > 100 µM
- TGI [44]: > 100 µM
- TGI [45]: > 100 µM
- TGI [46]: > 100 µM
- TGI [47]: > 100 µM
- TGI [48]: > 100 µM

SMILES: Cc1ccc2nc(-c3ccc(N4C(=O)C(Cl)C4c4ccc(Cl)cc4)cc3)sc2c1 (stereo not drawn)
- TGI [2]: 18.7 µM
- TGI [3]: 4.02 µM
- TGI [49]: 28 µM
- TGI [4]: 35.6 µM
- TGI [5]: 39.3 µM
- TGI [6]: 53.6 µM
- TGI [7]: 28.2 µM
- TGI [8]: 81.1 µM
- TGI [9]: 42.4 µM
- TGI [10]: > 100 µM
- TGI [11]: 66.8 µM
- TGI [12]: > 100 µM
- TGI [13]: 53.7 µM
- TGI [14]: 36.6 µM
- TGI [15]: 59.4 µM
- TGI [50]: 57.9 µM
- TGI [17]: > 100 µM
- TGI [18]: 57 µM
- TGI [19]: 38.1 µM
- TGI [21]: 36.9 µM
- TGI [51]: 61.7 µM
- TGI [52]: 36 µM
- TGI [53]: 45.8 µM
- TGI [23]: 8.38 µM
- TGI [24]: 46.2 µM
- TGI [54]: 32.1 µM
- TGI [26]: 35.3 µM
- TGI [27]: > 100 µM
- TGI [28]: 45.3 µM
- TGI [29]: 56.9 µM
- TGI [55]: 60.2 µM
- TGI [30]: 48 µM
- TGI [31]: 18.9 µM
- TGI [32]: 40.9 µM
- TGI [33]: 32.7 µM
- TGI [56]: 40.1 µM
- TGI [34]: > 100 µM
- TGI [35]: 36.7 µM
- TGI [36]: 31.5 µM
- TGI [37]: 47.7 µM
- TGI [38]: 81.5 µM
- TGI [39]: 33 µM
- TGI [40]: > 100 µM
- TGI [41]: 19.9 µM
- TGI [42]: 31.3 µM
- TGI [43]: 27.8 µM
- TGI [44]: 50.7 µM
- TGI [45]: 38.6 µM
- TGI [46]: 68 µM
- TGI [47]: > 100 µM
- TGI [48]: 36.8 µM

SMILES: CC(=O)On1c(-c2ccccc2-c2nc3ccccc3n2OC(C)=O)nc2ccccc21
- TGI [1]: 71.1 µM
- TGI [2]: > 100 µM
- TGI [49]: > 100 µM
- TGI [4]: > 100 µM
- TGI [5]: > 100 µM
- TGI [6]: > 100 µM
- TGI [7]: 13.7 µM
- TGI [8]: > 100 µM
- TGI [9]: > 100 µM
- TGI [10]: > 100 µM
- TGI [11]: > 100 µM
- TGI [12]: > 100 µM
- TGI [13]: 76.6 µM
- TGI [14]: > 100 µM
- TGI [15]: > 100 µM
- TGI [50]: > 100 µM
- TGI [16]: 88.6 µM
- TGI [17]: > 100 µM
- TGI [18]: > 100 µM
- TGI [19]: > 100 µM
- TGI [21]: > 100 µM
- TGI [51]: > 100 µM
- TGI [52]: > 100 µM
- TGI [53]: > 100 µM
- TGI [22]: > 100 µM
- TGI [25]: 51.5 µM
- TGI [54]: > 100 µM
- TGI [26]: > 100 µM
- TGI [27]: > 100 µM
- TGI [28]: > 100 µM
- TGI [29]: > 100 µM
- TGI [55]: > 100 µM
- TGI [30]: > 100 µM
- TGI [57]: > 100 µM
- TGI [32]: > 100 µM
- TGI [33]: > 100 µM
- TGI [56]: > 100 µM
- TGI [34]: 72.8 µM
- TGI [35]: > 100 µM
- TGI [36]: > 100 µM
- TGI [58]: > 100 µM
- TGI [37]: > 100 µM
- TGI [38]: > 100 µM
- TGI [39]: > 100 µM
- TGI [40]: > 100 µM
- TGI [42]: > 100 µM
- TGI [43]: 46 µM
- TGI [44]: > 100 µM
- TGI [45]: 71 µM
- TGI [46]: > 100 µM
- TGI [47]: > 100 µM
- TGI [48]: 58.6 µM

SMILES: CCCCON1C[C@H](OC(C)=O)C(OC(C)=O)[C@H](OC(C)=O)C1 (stereo partly drawn)
- TGI [1]: > 100 µM
- TGI [2]: > 100 µM
- TGI [3]: > 100 µM
- TGI [49]: > 100 µM
- TGI [4]: > 100 µM
- TGI [5]: > 100 µM
- TGI [6]: > 100 µM
- TGI [7]: > 100 µM
- TGI [8]: > 100 µM
- TGI [9]: > 100 µM
- TGI [10]: > 100 µM
- TGI [11]: > 100 µM
- TGI [12]: > 100 µM
- TGI [13]: > 100 µM
- TGI [14]: > 100 µM
- TGI [15]: > 100 µM
- TGI [50]: > 100 µM
- TGI [16]: > 100 µM
- TGI [17]: > 100 µM
- TGI [18]: > 100 µM
- TGI [19]: > 100 µM
- TGI [20]: > 100 µM
- TGI [21]: > 100 µM
- TGI [59]: > 100 µM
- TGI [51]: > 100 µM
- TGI [52]: > 100 µM
- TGI [53]: > 100 µM
- TGI [22]: > 100 µM
- TGI [23]: > 100 µM
- TGI [24]: > 100 µM
- TGI [25]: > 100 µM
- TGI [54]: > 100 µM
- TGI [26]: > 100 µM
- TGI [27]: > 100 µM
- TGI [29]: > 100 µM
- TGI [55]: > 100 µM
- TGI [57]: > 100 µM
- TGI [31]: > 100 µM
- TGI [32]: > 100 µM
- TGI [33]: > 100 µM
- TGI [56]: > 100 µM
- TGI [34]: > 100 µM
- TGI [35]: > 100 µM
- TGI [36]: > 100 µM
- TGI [58]: > 100 µM
- TGI [37]: > 100 µM
- TGI [38]: > 100 µM
- TGI [39]: > 100 µM
- TGI [40]: > 100 µM
- TGI [41]: > 100 µM
- TGI [42]: > 100 µM
- TGI [43]: > 100 µM
- TGI [44]: > 100 µM
- TGI [45]: > 100 µM
- TGI [46]: > 100 µM
- TGI [47]: > 100 µM
- TGI [48]: > 100 µM
